Tests used:
[1] = target: T1, BChE (EC 3.1.1.8, equine serum) (Equus caballus, UniProt P81908); assay: biochemical; type: biochemical; conditions: for Inhibition (%) BChE: concentration for the maximal effect measured
T1 construct: BChE (EC 3.1.1.8, equine serum); purchased Sigma-Aldrich; host or cells: equine serum
Description: (§1) AChE and BChE inhibition were determined using a modified spectrophotometric Ellman’s method. Acetylthiocholine iodide (ATChI), S-butyrylthiocholine iodide (BTChI), AChE (EC 3.1.1.7, Electrophorus electricus, Type: V-S), BChE (EC 3.1.1.8, equine serum), and Trisma base were purchased from Sigma-Aldrich (St. Louis, MO, USA), while Ellman’s reagent 5,50-dithiobis-(2-nitrobenzoic acid) (DTNB) was purchased from Zwijndrecht (Antwerpen, Belgium). The reaction mixture contained 180 µL Tris-HCl buffer (50 mM, pH 8.0) or phosphate buffer, 10 µL of the enzyme (final concentration 0.03 U/mL), 10 µL of the tested solution, and 10 μL of DTNB (final concentration 0.3 mM). The reaction started with adding 10 μL of ATChI/BTChI (final concentration of 0.5 mM). The developing yellow color was measured at 405 nm over 6 min at room temperature using a 96-well microplate reader (IRE 96, SFRI Medical Diagnostics, Bordeaux, France). The experiment was run in triplicate. The percentage of enzyme inhibition was calculated from measured data according to the equation: Inhibition (%) = [(Ac − AT)/A.C.]∙100, where A.C. is the enzyme activity without the test sample, and AT is the enzyme activity with the test sample, calculated as mean values ± standard deviation. In the control measurement, the tested compound was replaced by a buffer solution. Non-enzymatic hydrolysis was measured as blank for each measurement. The IC50 value was calculated by a nonlinear fit of compound concentration (log) values vs. response.

[2] = target: T2, AChE (EC 3.1.1.7, Electrophorus electricus, Type: V-S) (Electrophorus electricus, UniProt O42275); assay: AChE inhibition, modified spectrophotometric Ellman's method; type: biochemical
T2 construct: purchased Sigma-Aldrich Type: V-S
T2 sequence (O42275 24-633): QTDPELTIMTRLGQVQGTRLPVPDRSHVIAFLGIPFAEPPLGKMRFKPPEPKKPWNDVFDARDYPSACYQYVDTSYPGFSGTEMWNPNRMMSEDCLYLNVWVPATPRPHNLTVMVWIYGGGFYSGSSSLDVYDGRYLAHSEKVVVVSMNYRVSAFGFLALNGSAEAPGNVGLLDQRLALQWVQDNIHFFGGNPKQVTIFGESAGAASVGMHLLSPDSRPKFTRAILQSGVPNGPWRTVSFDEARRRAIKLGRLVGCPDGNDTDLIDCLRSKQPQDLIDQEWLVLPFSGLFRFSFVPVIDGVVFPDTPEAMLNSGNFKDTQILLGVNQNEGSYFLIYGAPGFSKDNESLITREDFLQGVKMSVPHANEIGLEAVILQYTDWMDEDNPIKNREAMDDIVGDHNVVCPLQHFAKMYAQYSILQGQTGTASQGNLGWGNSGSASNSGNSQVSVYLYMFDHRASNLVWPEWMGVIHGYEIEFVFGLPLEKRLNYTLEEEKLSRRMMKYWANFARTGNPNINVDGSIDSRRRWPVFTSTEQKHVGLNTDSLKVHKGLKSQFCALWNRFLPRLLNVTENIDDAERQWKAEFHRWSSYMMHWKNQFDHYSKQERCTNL
Description: as §1, with “The experiment was run in triplicate.” left out, “In the control measurement, the tested compound was replaced by a buffer solution.” left out

[3] = Solubility as observed in the cholinesterase measurements; type: physicochemical; conditions: did not allow measurements at higher concentrations
From the text: Tested compounds were active only toward BChE, and the results are presented in Table 2 and Figure 8 and Figure 9. Among stilbene derivatives, the best result is achieved by the derivative with a phenolic ring trans-8a and the thiophene derivative trans-1a (Table 2, Figure 9). […] Replacement of phenol from trans-8a with thiophene in trans-1a reduces the IC50 value by seven times. Replacing the methyl group from trans-1a with an isopropyl group in trans-2a (along with the inversion of the sulfur and nitrogen position) also reduces the activity. Furthermore, a change in geometry from trans-1a to cis-1a also diminished inhibitory activity, as was observed earlier.

T1 sequence (P81908 whole entry): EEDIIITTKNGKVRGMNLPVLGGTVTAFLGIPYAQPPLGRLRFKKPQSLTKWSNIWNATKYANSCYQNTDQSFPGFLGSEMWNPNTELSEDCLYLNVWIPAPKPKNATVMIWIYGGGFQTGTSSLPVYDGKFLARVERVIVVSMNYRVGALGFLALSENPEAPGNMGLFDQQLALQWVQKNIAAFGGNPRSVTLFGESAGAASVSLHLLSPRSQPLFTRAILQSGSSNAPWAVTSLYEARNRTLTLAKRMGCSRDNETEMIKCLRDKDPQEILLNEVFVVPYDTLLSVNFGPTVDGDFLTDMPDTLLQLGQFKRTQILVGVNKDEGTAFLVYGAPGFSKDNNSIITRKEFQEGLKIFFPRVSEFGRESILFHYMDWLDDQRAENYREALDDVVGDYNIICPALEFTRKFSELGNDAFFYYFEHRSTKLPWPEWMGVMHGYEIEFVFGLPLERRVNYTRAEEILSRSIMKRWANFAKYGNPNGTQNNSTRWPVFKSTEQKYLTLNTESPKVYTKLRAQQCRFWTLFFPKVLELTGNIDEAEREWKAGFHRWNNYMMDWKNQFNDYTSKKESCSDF

For `CC(=O)Nc1ncc(C=Cc2cccs2)s1` (mixture of isomers) [Compound 5a, N-(5-(2-(thiophen-2-yl)vinyl)thiazol-2-yl)acetamide], the “inhibitory activity toward BChE (in words)” value [1] was “ineffective inhibitors” and the inhibition at 250 µM ([1]; read-out: Inhibition (%) BChE) was 30.6%.

In the case of `Cc1nc2c(ccc3sccc32)s1` [Compound 1, 2-methylthieno[2′,3′:5,6]benzo[1,2-d]thiazole], the IC50 [1] is reported as 107 µM and the inhibition at 500 µM ([1]; read-out: Inhibition (%) BChE) is reported as 79.1%.

For `CC(C)c1nc2ccc3sccc3c2s1` [Compound 2, 2-isopropylthieno[3′,2′:3,4]benzo[1,2-d]thiazole], the inhibition at 200 µM ([1]; read-out: Inhibition (%) BChE) was 46.8%.

Work on `Clc1nc2c(ccc3sccc32)s1` [Compound 3, 2-chlorothieno[2′,3′:5,6]benzo[1,2-d]thiazole] yielded an IC50 [1] of 51.1 µM and an inhibition at 250 µM ([1]; read-out: Inhibition (%) BChE) of 75.4%.

Work on `FC(F)(F)c1nc2c(ccc3sccc32)s1` [Compound 4, 2-(trifluoromethyl)thieno[2′,3′:5,6]benzo[1,2-d]thiazole] yielded an IC50 [1] of 41.9 µM and an inhibition at 200 µM ([1]; read-out: Inhibition (%) BChE) of 70.8%.

In the case of `CC(=O)Nc1nc2c(ccc3sccc32)s1` [Compound 5, N-(thieno[2′,3′:5,6]benzo[1,2-d]thiazol-2-yl)acetamide], the inhibition at 250 µM ([1]; read-out: Inhibition (%) BChE) is reported as 24.9%.

`c1ccc2c(c1)ccc1ncoc12` [Compound 11] gave an inhibition at 188 µM ([1]; read-out: Inhibition (%) BChE) of 0.9%.

With `N#Cc1cccc2c1ccc1ncoc12` [Compound 12] the inhibition at 176 µM ([1]; read-out: Inhibition (%) BChE) was 40.9%.

In the case of `Cc1cccc2c1ccc1ncoc12` [Compound 13], the IC50 [1] is reported as 351 µM and the inhibition at 396.8 µM ([1]; read-out: Inhibition (%) BChE) is reported as 57.8%.

Molecule `Cc1ccc2ccc3ncoc3c2c1` [Compound 14] has an IC50 [1] of 155 µM and an inhibition at 173.6 µM ([1]; read-out: Inhibition (%) BChE) of 63.3%.

In the case of `Cc1ccc2ccc3nc(C)oc3c2c1` [Compound 15], the IC50 [1] is reported as 44.4 µM and the inhibition at 368.6 µM ([1]; read-out: Inhibition (%) BChE) is reported as 98.3%.

With `O=[N+]([O-])c1ccc2ccc3ncoc3c2c1` [Compound 16] the IC50 [1] was 137 µM, the inhibition at 201.7 µM ([1]; read-out: Inhibition (%) BChE) was 64.9% and the IC50 [2] was 131 µM. It also gave an inhibition at 201.7 µM ([2]; read-out: % of inhibition AChE) of 63.8%.

`Cc1nc2ccc3ccc([N+](=O)[O-])cc3c2o1` [Compound 17] showed an inhibition at 159.5 µM ([1]; read-out: Inhibition (%) BChE) of 16.8%.

`COc1ccc2ccc3ncoc3c2c1` [Compound 18] showed an inhibition at 273.6 µM ([1]; read-out: Inhibition (%) BChE) of 38%.

With `COc1ccc2ccc3nc(C)oc3c2c1` [Compound 19] the IC50 [1] was 170 µM and the inhibition at 405.2 µM ([1]; read-out: Inhibition (%) BChE) was 81.9%.

`CN(C)c1ccc2ccc3ocnc3c2c1` [Compound 20] showed an IC50 [1] of 184 µM and an inhibition at 364.2 µM ([1]; read-out: Inhibition (%) BChE) of 82.2%.

For `Clc1ccc2ccc3ocnc3c2c1` [Compound 21], the inhibition at 312.3 µM ([1]; read-out: Inhibition (%) BChE) was 32.6%.

Molecule `Fc1ccc2ccc3ocnc3c2c1` [Compound 22] has an IC50 [1] of 128 µM and an inhibition at 315.8 µM ([1]; read-out: Inhibition (%) BChE) of 69.9%.

In the case of `Cc1cccc2c1ccc1ocnc12` [Compound 23], the inhibition at 297.5 µM ([1]; read-out: Inhibition (%) BChE) is reported as 20.6%.

For `Clc1ncc(/C=C/c2cccs2)s1` [trans-3a, (E)-2-chloro-5-(2-(thiophen-2-yl)vinyl)thiazole], the “inhibitory activity toward BChE (in words)” value [1] was “ineffective inhibitors” and the inhibition at 250 µM ([1]; read-out: Inhibition (%) BChE) was 10%.

With `CCC(C)Nc1ncc(/C=C/c2cccs2)s1` (stereo not drawn) [trans-9a, (E)-N-(sec-butyl)-5-(2-(thiophen-2-yl)vinyl)thiazol-2-amine] the inhibition at 100 µM ([1]; read-out: Inhibition (%) BChE) was 47.7% and the “solubility (in words)” value [3] was “limited solubility”.

For `Clc1nc(N2CCCC2)sc1/C=C/c1cccs1` [trans-10a, (E)-4-chloro-2-(pyrrolidin-1-yl)-5-(2-(thiophen-2-yl)vinyl)thiazole], the inhibition at 100 µM ([1]; read-out: Inhibition (%) BChE) was 25.3% and the “solubility (in words)” value [3] was “limited solubility”.

With “(E)-2-(2-(2-methylthiazol-5-yl)vinyl)phenol [trans-8a]” the IC50 [1] was 25.2 µM and the “Inhibition (%) BChE” value ([1]; 250 μM) was 80.5 (250) %.

In the case of “(E)-2-isopropyl-5-(2-(thiophen-2-yl)vinyl)thiazole [trans-2a]”, the “Inhibition (%) BChE” value ([1]; 250 μM) is reported as 45.8 (250) %.

With “(E)-2-methyl-5-(2-(thiophen-2-yl)vinyl)thiazole [trans-1a]” the IC50 [1] was 181 µM and the “Inhibition (%) BChE” value ([1]; 500 μM) was 64.0 (500) %.

With “(Z)-2-isopropyl-5-(2-(thiophen-2-yl)vinyl)thiazole [cis-2a]” the “Inhibition (%) BChE” value ([1]; 250 μM) was 45.5 (250) %.

In the case of “(Z)-2-methyl-5-(2-(thiophen-2-yl)vinyl)thiazole [cis-1a]”, the “inhibitory activity toward BChE (in words)” value [1] is reported as “ineffective inhibitors” and the “Inhibition (%) BChE” value ([1]; 500 μM) is reported as 36.4 (500) %.
